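Where inhibition never reached the appropriate level, the endpoint shown equals the highest concentration tested. Otherwise, values were interpolated linearly from a five-concentration, 48-hour dose response in 96-well plates. GI50 is the concentration that inhibits growth by half.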 Activity calls are given as the source filed them. Rule as the data show it: active = GI50 up to about 1.1 µM and inactive = higher.
Columns and labels:
Assay in all cases: NCI-60 cell line screen, 48 h
[1] = system: DU-145
[2] = system: HCT-116
[3] = system: HOP-92
[4] = system: HT-29
[5] = system: K562
[6] = system: M14
[7] = system: MDA-MB-231
[8] = system: MOLT-4
[9] = system: NCI-H460
[10] = system: OVCAR-5
[11] = system: RPMI-8226
[12] = system: SF-268
[13] = system: SK-MEL-28
[14] = system: SK-MEL-2
[15] = system: SK-OV-3
[16] = system: SN12C
[17] = system: SW-620
[18] = system: T47D
[19] = system: UACC-257
[20] = system: MDA-N

Structure (SMILES)	GI50 [1]	GI50 [2]	GI50 [3]	GI50 [4]	GI50 [5]	GI50 [6]	GI50 [7]	GI50 [8]	GI50 [9]	GI50 [10]	GI50 [11]	GI50 [12]	GI50 [13]	GI50 [14]	GI50 [15]	GI50 [16]	GI50 [17]	GI50 [18]	GI50 [19]	GI50 [20]
O=C1C(=C(C(F)(F)Cl)C(F)(F)Cl)C2CCC1C2 (stereo unspecified)	7.53 µM (inactive)	1.9 µM (inactive)	2.58 µM (inactive)	2.19 µM (inactive)	0.63 µM (active)	1.16 µM (inactive)	1.56 µM (inactive)	0.0131 µM (active)	3.15 µM (inactive)	2.96 µM (inactive)	0.849 µM (active)	2.41 µM (inactive)	1.93 µM (inactive)	1.78 µM (inactive)	> 10 µM (inactive)	1.97 µM (inactive)	1.82 µM (inactive)	1.38 µM (inactive)	1.9 µM (inactive)	–
COc1ccc(Nc2cc(O)nc(O)n2)cc1	> 100 µM (inactive)	> 100 µM (inactive)	> 100 µM (inactive)	> 100 µM (inactive)	> 100 µM (inactive)	> 100 µM (inactive)	> 100 µM (inactive)	> 100 µM (inactive)	> 100 µM (inactive)	> 100 µM (inactive)	> 100 µM (inactive)	> 100 µM (inactive)	> 100 µM (inactive)	–	–	> 100 µM (inactive)	> 100 µM (inactive)	–	> 100 µM (inactive)	> 100 µM (inactive)
O=C(CC(C(=O)c1cccs1)c1ccccc1)c1ccccc1O (stereo unspecified)	36.4 µM (inactive)	4.74 µM (inactive)	7.6 µM (inactive)	11.9 µM (inactive)	3.1 µM (inactive)	4 µM (inactive)	–	7.08 µM (inactive)	48.1 µM (inactive)	> 100 µM (inactive)	12.8 µM (inactive)	8.28 µM (inactive)	20 µM (inactive)	> 21.8 µM (inactive)	8.57 µM (inactive)	> 20.7 µM (inactive)	46 µM (inactive)	9.66 µM (inactive)	> 30.7 µM (inactive)	4.93 µM (inactive)
COc1ccc(-n2c(N)c(C#N)c(C#N)c2-c2ccccc2)cc1	> 100 µM (inactive)	> 100 µM (inactive)	10.1 µM (inactive)	> 100 µM (inactive)	–	> 100 µM (inactive)	> 100 µM (inactive)	> 100 µM (inactive)	–	> 100 µM (inactive)	> 100 µM (inactive)	31.1 µM (inactive)	–	22.8 µM (inactive)	> 100 µM (inactive)	> 100 µM (inactive)	> 100 µM (inactive)	4.57 µM (inactive)	> 100 µM (inactive)	–
Cc1ccc(S(=O)(=O)NNC(C[N+](=O)[O-])c2ccccc2)cc1 (stereo unspecified)	44.5 µM (inactive)	4.14 µM (inactive)	39.8 µM (inactive)	2.02 µM (inactive)	0.787 µM (active)	5.65 µM (inactive)	28.4 µM (inactive)	3.56 µM (inactive)	17.9 µM (inactive)	44.8 µM (inactive)	3.56 µM (inactive)	15.3 µM (inactive)	–	34.2 µM (inactive)	21.9 µM (inactive)	32 µM (inactive)	11.5 µM (inactive)	10.9 µM (inactive)	19.7 µM (inactive)	–
CN(C)c1ccc(/N=C2/C=CC(=C(C#N)C#N)c3ccccc32)cc1	0.259 µM (active)	0.117 µM (active)	0.07 µM (active)	0.177 µM (active)	0.0723 µM (active)	0.145 µM (active)	0.307 µM (active)	0.196 µM (active)	0.332 µM (active)	0.326 µM (active)	0.122 µM (active)	0.38 µM (active)	0.52 µM (active)	0.337 µM (active)	0.332 µM (active)	0.332 µM (active)	0.114 µM (active)	–	1.49 µM (inactive)	0.0365 µM (active)
COc1ccc(-c2nc(Sc3c([N+](=O)[O-])ncn3C)n[nH]2)cc1	–	2.81 µM (inactive)	2.55 µM (inactive)	2.39 µM (inactive)	2.99 µM (inactive)	2.17 µM (inactive)	–	2.85 µM (inactive)	8.77 µM (inactive)	21 µM (inactive)	3.66 µM (inactive)	3.94 µM (inactive)	4.21 µM (inactive)	2.25 µM (inactive)	4.17 µM (inactive)	2.64 µM (inactive)	3.26 µM (inactive)	–	3.48 µM (inactive)	–
CN(C)C(=N)NC(=S)N(C)C	–	> 100 µM (inactive)	> 100 µM (inactive)	> 100 µM (inactive)	> 100 µM (inactive)	> 100 µM (inactive)	–	> 100 µM (inactive)	> 100 µM (inactive)	> 100 µM (inactive)	> 100 µM (inactive)	> 100 µM (inactive)	> 100 µM (inactive)	> 100 µM (inactive)	> 100 µM (inactive)	> 100 µM (inactive)	> 100 µM (inactive)	–	> 100 µM (inactive)	–
CCCCc1ccc(Nc2cc(=O)n(C)c(=O)[nH]2)cc1	–	72.6 µM (inactive)	26.7 µM (inactive)	> 100 µM (inactive)	85.7 µM (inactive)	> 100 µM (inactive)	89.7 µM (inactive)	–	32.2 µM (inactive)	> 100 µM (inactive)	> 100 µM (inactive)	64.4 µM (inactive)	> 100 µM (inactive)	> 100 µM (inactive)	> 100 µM (inactive)	> 100 µM (inactive)	> 100 µM (inactive)	> 100 µM (inactive)	> 100 µM (inactive)	> 100 µM (inactive)
COC1(OC)CC2C(=O)N(Cc3ccccc3)C1C(S(=O)(=O)c1ccccc1)C2C(C)S(=O)(=O)c1ccccc1 (stereo unspecified)	–	> 100 µM (inactive)	17 µM (inactive)	> 100 µM (inactive)	> 100 µM (inactive)	> 100 µM (inactive)	–	> 100 µM (inactive)	> 100 µM (inactive)	> 100 µM (inactive)	> 100 µM (inactive)	> 100 µM (inactive)	> 100 µM (inactive)	> 100 µM (inactive)	> 100 µM (inactive)	> 100 µM (inactive)	> 100 µM (inactive)	–	> 100 µM (inactive)	–
CC(C)(C)OC(=O)N1C(=O)C2CCCC21 (stereo unspecified)	> 100 µM (inactive)	> 100 µM (inactive)	> 100 µM (inactive)	> 100 µM (inactive)	–	> 100 µM (inactive)	> 100 µM (inactive)	> 100 µM (inactive)	> 100 µM (inactive)	> 100 µM (inactive)	> 100 µM (inactive)	> 100 µM (inactive)	> 100 µM (inactive)	> 100 µM (inactive)	> 100 µM (inactive)	> 100 µM (inactive)	> 100 µM (inactive)	> 100 µM (inactive)	> 100 µM (inactive)	–
c1ccc2c(c1)[nH]c1c2ncc2[nH]c3ccccc3c21	–	1.77 µM (inactive)	2.57 µM (inactive)	2.88 µM (inactive)	2.55 µM (inactive)	2.75 µM (inactive)	–	3.05 µM (inactive)	2.13 µM (inactive)	10.9 µM (inactive)	2.26 µM (inactive)	6.32 µM (inactive)	11.7 µM (inactive)	7.29 µM (inactive)	14.1 µM (inactive)	3.51 µM (inactive)	2.9 µM (inactive)	–	> 10 µM (inactive)	–
CN(C)[C@@H]1C(O)=C(C(=O)NCN2CCN(C(=N)NC(=N)N)CC2)C(=O)[C@@]2(O)C(O)=C3C(=O)c4c(O)cccc4[C@@](C)(O)[C@H]3C[C@@H]12	–	0.221 µM (active)	0.279 µM (active)	0.123 µM (active)	0.0401 µM (active)	0.279 µM (active)	–	0.0597 µM (active)	0.324 µM (active)	0.282 µM (active)	0.0315 µM (active)	0.518 µM (active)	0.238 µM (active)	0.113 µM (active)	1.29 µM (inactive)	0.338 µM (active)	0.16 µM (active)	–	0.324 µM (active)	–
CC(=O)Oc1c(-c2ccccc2)oc2ccccc12	3.96 µM (inactive)	1.66 µM (inactive)	2.4 µM (inactive)	2.5 µM (inactive)	2.06 µM (inactive)	2.02 µM (inactive)	1.45 µM (inactive)	1.89 µM (inactive)	0.678 µM (active)	1.85 µM (inactive)	0.813 µM (active)	2.28 µM (inactive)	2.38 µM (inactive)	1.8 µM (inactive)	–	2.19 µM (inactive)	3.1 µM (inactive)	1.98 µM (inactive)	2.59 µM (inactive)	–
N#Cc1ccc(C2NN=CC23C(=O)c2ccccc2OC3c2ccccc2)cc1 (stereo unspecified)	47.1 µM (inactive)	20.5 µM (inactive)	–	31.7 µM (inactive)	33.5 µM (inactive)	97.1 µM (inactive)	57.4 µM (inactive)	22.3 µM (inactive)	27.4 µM (inactive)	45.7 µM (inactive)	20.8 µM (inactive)	52.4 µM (inactive)	51.1 µM (inactive)	29.5 µM (inactive)	31.8 µM (inactive)	41.1 µM (inactive)	45.2 µM (inactive)	–	28 µM (inactive)	–
COc1ccc(C(=O)NCCC2CN(S(=O)(=O)C(F)(F)F)c3ccccc32)c(OC)c1 (stereo unspecified)	> 100 µM (inactive)	35.8 µM (inactive)	61.4 µM (inactive)	22.7 µM (inactive)	28.3 µM (inactive)	35.1 µM (inactive)	> 100 µM (inactive)	29.1 µM (inactive)	33.6 µM (inactive)	> 100 µM (inactive)	26.8 µM (inactive)	–	51.2 µM (inactive)	53.6 µM (inactive)	> 100 µM (inactive)	–	35.8 µM (inactive)	–	40.8 µM (inactive)	33.2 µM (inactive)

Reference: ChEMBL document CHEMBL1201862, “PubChem BioAssay data set” (2004)
